Laboratory results reported in ChEMBL document CHEMBL5579805, “Synthesis, antibacterial activity, and 3D-QASR studies of matrine-indole derivatives as potential antibiotics” (2024).
Values after ≈ are worked out from the molar mass of the structure shown.

Key:
Format in all cases: functional
Pseudomonas aeruginosa = assay: Antibacterial activity against Pseudomonas aeruginosa by two-fold dilution method
Escherichia coli = assay: Antibacterial activity against Escherichia coli by two-fold dilution method
Candida albicans = assay: […] activity against Candida albicans by two-fold dilution method; details: for MIC: Candida albicans
Cutibacterium acnes = assay: Antibacterial activity against Propionibacterium acnes by two-fold dilution method
Staphylococcus aureus = assay: Antibacterial activity against Staphylococcus aureus by two-fold dilution method; details: for MIC: Staphylococcus aureus

| Structure (SMILES) | MIC (Pseudomonas aeruginosa) [µg/mL] | MIC (Escherichia coli) [µg/mL] | MIC (Candida albicans) [µg/mL] | MIC (Cutibacterium acnes) [µg/mL] | MIC (Staphylococcus aureus) [µg/mL] | -logMIC (Candida albicans) | -logMIC (Staphylococcus aureus) |
| --- | --- | --- | --- | --- | --- | --- | --- |
| O=C1CCC[C@@H]2[C@H]3CCCN4CCC[C@@H](CN12)[C@@H]34 [MATRINE] | 6.73 (≈ 27.1 µM) | 5.46 (≈ 22 µM) | 8 (≈ 32.2 µM) | 16 (≈ 64.3 µM) | 7.43 (≈ 29.9 µM) |  |  |
| COC(=O)CCC[C@@H]1[C@H]2CCCN3CCC[C@@H](CN1C(=O)c1cc4ccc(Cl)cc4n1Cc1ccc(-c4ccccc4)cc1)[C@@H]23 | 0.55 (≈ 0.881 µM) | 1.16 (≈ 1.86 µM) | 23.2 (≈ 37.2 µM) | 0.373 (≈ 0.598 µM) | 0.053 (≈ 0.0849 µM) | -1.37 | 1.276 |
| COC(=O)CCC[C@@H]1[C@H]2CCCN3CCC[C@@H](CN1C(=O)c1cc4ccc(Cl)cc4n1Cc1ccccc1[N+](=O)[O-])[C@@H]23 | 0.852 (≈ 1.44 µM) | 0.694 (≈ 1.17 µM) | 11.1 (≈ 18.8 µM) | 2.86 (≈ 4.82 µM) | 0.133 (≈ 0.224 µM) | -1.05 | 0.876 |
| COC(=O)CCC[C@@H]1[C@H]2CCCN3CCC[C@@H](CN1C(=O)c1cc4ccc(Cl)cc4n1Cc1cc(Cl)ccc1F)[C@@H]23 | 0.5 (≈ 0.833 µM) | 0.848 (≈ 1.41 µM) | 5.48 (≈ 9.12 µM) | 0.084 (≈ 0.14 µM) | 0.097 (≈ 0.162 µM) | -0.739 | 1.013 |
| COC(=O)CCC[C@@H]1[C@H]2CCCN3CCC[C@@H](CN1C(=O)c1cc4ccc(Cl)cc4n1Cc1c(Cl)cccc1Cl)[C@@H]23 | 0.207 (≈ 0.335 µM) | 0.82 (≈ 1.33 µM) | 6.81 (≈ 11 µM) | 0.203 (≈ 0.329 µM) | 0.164 (≈ 0.266 µM) | -0.833 | 0.785 |
| COC(=O)CCC[C@@H]1[C@H]2CCCN3CCC[C@@H](CN1C(=O)c1cc4ccc(Cl)cc4n1Cc1ccccc1C#N)[C@@H]23 | 0.693 (≈ 1.21 µM) | 0.823 (≈ 1.44 µM) | 11.2 (≈ 19.6 µM) | 0.848 (≈ 1.48 µM) | 0.48 (≈ 0.837 µM) | -1.05 | 0.319 |
| COC(=O)CCC[C@@H]1[C@H]2CCCN3CCC[C@@H](CN1C(=O)c1cc4ccc(Cl)cc4n1Cc1ccccc1C)[C@@H]23 | 0.72 (≈ 1.28 µM) | 1.1 (≈ 1.97 µM) | 19.6 (≈ 34.8 µM) | 0.271 (≈ 0.482 µM) | 0.063 (≈ 0.112 µM) | -1.29 | 1.201 |

Continued, in another order:

| MIC (Pseudomonas aeruginosa) [µg/mL] | MIC (Escherichia coli) [µg/mL] | MIC (Candida albicans) [µg/mL] | MIC (Cutibacterium acnes) [µg/mL] | MIC (Staphylococcus aureus) [µg/mL] | Structure (SMILES) | -logMIC (Candida albicans) | -logMIC (Staphylococcus aureus) |
| --- | --- | --- | --- | --- | --- | --- | --- |
| 0.806 (≈ 1.42 µM) | 0.618 (≈ 1.09 µM) | 5.89 (≈ 10.4 µM) | 0.199 (≈ 0.352 µM) | 0.923 (≈ 1.63 µM) | COC(=O)CCC[C@@H]1[C@H]2CCCN3CCC[C@@H](CN1C(=O)c1cc4ccc(Cl)cc4n1Cc1ccc(F)cc1)[C@@H]23 | -0.77 | 0.035 |
| 0.092 (≈ 0.149 µM) | 0.379 (≈ 0.615 µM) | 2.81 (≈ 4.55 µM) | 0.03 (≈ 0.0487 µM) | 0.021 (≈ 0.0341 µM) | COC(=O)CCC[C@@H]1[C@H]2CCCN3CCC[C@@H](CN1C(=O)c1cc4ccc(Cl)cc4n1Cc1ccc(C(F)(F)F)cc1)[C@@H]23 | -0.448 | 1.678 |
| 0.773 (≈ 1.38 µM) | 1.09 (≈ 1.93 µM) | 8.08 (≈ 14.4 µM) | 0.508 (≈ 0.904 µM) | 1.66 (≈ 2.96 µM) | COC(=O)CCC[C@@H]1[C@H]2CCCN3CCC[C@@H](CN1C(=O)c1cc4ccc(Cl)cc4n1Cc1ccc(C)cc1)[C@@H]23 | -0.907 | 0.221 |
